Experiments:
[1] = target: T1, CD39 expressed by Ramos human lymphoma cells (Homo sapiens, UniProt P49961); experiment: Inhibition of the enzymatic activity of cellular CD39 in Ramos cells; format: cell-based
T1 construct: cells that endogenously express CD39 at their surface; host or cells: Ramos
T1 sequence (P49961 1-510): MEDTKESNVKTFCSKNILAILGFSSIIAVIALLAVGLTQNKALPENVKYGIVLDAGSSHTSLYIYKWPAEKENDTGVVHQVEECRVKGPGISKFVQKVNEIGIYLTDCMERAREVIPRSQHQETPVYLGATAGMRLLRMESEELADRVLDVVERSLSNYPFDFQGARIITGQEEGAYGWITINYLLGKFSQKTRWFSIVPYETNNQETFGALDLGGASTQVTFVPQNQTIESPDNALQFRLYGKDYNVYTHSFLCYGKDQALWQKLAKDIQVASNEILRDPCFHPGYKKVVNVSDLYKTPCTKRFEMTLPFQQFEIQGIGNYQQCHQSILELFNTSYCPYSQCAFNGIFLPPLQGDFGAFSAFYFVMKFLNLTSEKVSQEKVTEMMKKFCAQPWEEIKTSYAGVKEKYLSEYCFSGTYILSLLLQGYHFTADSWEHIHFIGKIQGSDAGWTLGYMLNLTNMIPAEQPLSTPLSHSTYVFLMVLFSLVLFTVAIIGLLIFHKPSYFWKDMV
Description: (§1) The inhibition of the CD39 enzymatic activity in CD39-expressing cells by antibodies was evaluated using Cell Titer GIo™ (Promega, reference G7571) that allows assessment of ATP hydrolysis through use of a reagent that generates a luminescent signal proportional to the amount of ATP present. The assay was thus designed to permit assessment of the inhibition of ATP hydrolyzed by CD39 in the cell culture supernatant. Briefly, 5×10^4 Ramos human lymphoma cells, 5×10^3 human CD39−, cynomolgus CD39—and mouse CD39− expressing CHO cells, were incubated 1 hour at 37° C. with anti-CD39 antibodies from 30 μg/ml to 5×10^−4 μg/ml. Cells were then incubated with 20 μM ATP for 1 additional hour at 37° C. Plates were centrifuged for 2 min at 400 g and 50 μl cell supernatant are transferred in a luminescence microplate (white wells). 50 μl CellTiter-Glo™ Reagent (CTG) was added to the supernatant and emitted light was quantified after a 5 min incubation in the dark using a Enspire™ luminometer. Anti-CD39 antibody efficacy was determined by comparing emitted light in presence of antibody with ATP alone (maximal light emission) and ATP together with cells (minimal light emission).

[2] = tested on: monocyte-derived DC (moDC); experiment: Activation of dendritic cells in the presence of ATP; format: cell-based, human; settings: ATP 0.125 mM, 0.25 mM or 0.5 mM; I-394 at 10 μg/ml
Description: Briefly, human monocytes were purified from human healthy blood and differentiated into MoDC in presence of GM-CSF and IL-4 during 6 days. […] In some cases, MoDC were preincubated for 1 hour in presence of CD39 inhibitor: […] (Tocris, 250 μM), CD73 inhibitor: APCP (Tocris 50 μM), anti-CD39 blocking antibody I-394 or BY40 (for BY40 see WO2009/095478), or anti-CD73 blocking antibodies. LPS (Invivogen, 10 ng/ml) was used as positive control. To assess resulting effect of ATP-mediated DC activation on CD4 T cells activation, ATP-activated DC were washed and then incubated with allogenic CD4 T cells (ratio 1 MoDC/4 T cells) for a mixed lymphocytes reaction (MLR) during 5 days. T cells activation and proliferation were analyzed through CD25 expression and Cell Trace Violet dilution by flow cytometry (FIG. 8).

CD4 or CD8 T cells = experiment: T cell proliferation assay in the presence of added ATP; format: cell-based, human; settings: for increase in potency of anti-CD73 antibodies: CD4 T cell proliferation
Description: Peripheral blood from healthy donors was obtained from EFS, and mononuclear cells were isolated on a Ficoll™ gradient. Lymphocytes were further enriched on a 52% Percoll™ gradient by collection of the cell pellets and stained with a Cell Trace dye (Thermofisher) following the TDS provided by the manufacturer. […] to 1×10^5 of stained cells were distributed in 96 round-bottom plates, incubated for 1 hour at 37° C. with anti-huCD73 antibodies (antibody 6E1 described in WO2016/131950) and/or anti-huCD39 Abs (I-394 described herein) and activated for 3 to 5 days by addition of anti-CD3/anti-CD28-coated beads (bead:cell=1:4; Life Technologies). Inhibition of T cell proliferation was achieved by addition of ATP (200 μM). T cell proliferation and ability of Abs to block immune suppressive effect of AMP were assessed by flow cytometry by quantifying the dye dilution in the proliferating T cell subset.
Percentage of proliferating T cells vs. anti-CD73 Ab concentration is plotted in graphs using GraphPad Prism™ software.

CD39 = target: T2, CD39 (Homo sapiens, UniProt P49961); experiment: ELISA titration on huCD39 (vascular isoform); format: binding; design: made in house
T2 sequence (P49961 1-510): T1 sequence (P49961 1-510)
Description: Antibody I-394 was tested for binding to recombinant human CD39 isoforms (Rec-huCD39 isoforms) having amino acid sequences shown below were coated in 96-well plate in PBS 1X at 500 ng/ml or 1 μg/ml at 4° C. overnight. Wells were washed in TBS Tween® 20 (polysorbate 20), and further saturated 2H at RT in TBS Blocking buffer. Dose range concentration of primary antibody was incubated in TBS blocking buffer for 2 h at RT. Wells were washed in TBS Tween® 20 (polysorbate 20). […] Optical density was measured on Enspire™ at OD=450.

[3] = target: T3, human CD39 expressing CHO cells (CHO-huCD39) (Homo sapiens, UniProt P49961); experiment: Inhibition of the enzymatic activity of cellular CD39 in CHO-huCD39; format: cell-based; settings: qualitative
T3 construct: expressed in transfected cells; host or cells: CHO
T3 sequence (P49961 1-510): T1 sequence (P49961 1-510)
Description: as §1

[4] = tested on: CHO cells expressing cynomolgus (Macaca fascicularis) CD39; experiment: Antibody titration on CHO-cyCD39 by flow cytometry; format: binding; settings: qualitative
Description: Antibody I-394 was tested in two repeated experiments for binding to CHO cells expressing human CD39, CHO cells expressing cynomolgus (Macaca fascicularis) CD39, CHO cells expressing murine CD39, and human Ramos lymphoma cells (ATCC™, reference CRL-1596). Cells were incubated with various concentration of unlabeled anti-CD39 antibody from 30 μg/ml to 5×10^−4 μg/ml, for 30 minutes at 4° C. After washes, cells were incubated with Goat anti-mouse H+L labeled secondary antibody for 30 min at 4° C.

inhibition maximum, cellular CD39 ([1]; Ramos cells): 81.6%
binding to CD39 in ELISA (CD39): bound to the CD39
Substance: I-394: anti-CD39 antibody, VH SEQ ID NO: 6, VL SEQ ID NO: 7, human IgG1 Fc with L234A/L235E/G237A/A330S/P331S
potency at blocking CD39 enzymatic activity relative to other antibodies ([1]; Ramos cells): greater potency compared to all other antibodies tested
blocking CD39 enzymatic activity in tumor (Ramos) cells ([1]; qualitative): highly potent at blocking CD39 enzymatic activity
ATP-induced moDC activation (HLA-DR or CD83 expression) [2]: permitted moDC activation
potentiation of anti-CD73 antibodies in restoring CD4 or CD8 T cell proliferation (CD4 or CD8 T cells; ATP 200 μM, combination with anti-CD73 antibody 6E1): strongly potentiation the effect of anti-CD73 antibodies in restoring CD4 or CD8 T cell proliferation
increase in potency of anti-CD73 antibodies (CD4 or CD8 T cells; anti-CD39 at 0.01 μg/ml): approximately 1 log
increase in potency of anti-CD73 antibodies (CD4 or CD8 T cells; anti-CD39 at 0.1 μg/ml): approximately 4 log
enhancement of CD4 or CD8 T cell proliferation, alone without anti-CD73 (CD4 or CD8 T cells; concentrations of 0.1 μg/ml and 1 μg/ml, ATP 200 μM): remarkable enhancement of CD4 or CD8 T cell proliferation
blocking CD39 enzymatic activity in CHO-huCD39 [3]: blocks CD39 enzymatic activity
binding to cells expressing cynomolgus CD39 (CHO-cyCD39) [4]: bound

Source: patent publication US12202907B2, “Nucleic acids encoding and methods of producing proteins comprising antibody chains” (Innate Pharma, priority 2018, dated 2025)
